Laboratory results taken from patent publication EP0552417B1, “Cyclic peptides and use thereof” (priority 1991, dated 1993).
Non-standard residues stand in square brackets, D forms with d. Residues, ends and D or L forms follow the SMILES beside them. *: point of attachment. 1Nal = N[C@@H](Cc1cccc2ccccc12)C(=O)O; Bn = c1ccc(C*)cc1

Tests used:
[1] = target: T1, endothelin receptor B (ETB) (Bos taurus, UniProt P28088); test: Assay of affinity for receptor (2): binding activity on ETB receptor *1, 125I-labeled endothelin-1, bovine brain membrane fraction; settings: 1 hour; for Binding Activity on ET Receptor (R. act.) ETB*1: specific activity, taking the binding activity of the compound of Example 8 on receptor B as 100, 25°C
T1 construct: A membrane fraction prepared from the bovine brain; from tissue; host or cells: bovine brain membrane fraction
T1 sequence (P28088 27-441): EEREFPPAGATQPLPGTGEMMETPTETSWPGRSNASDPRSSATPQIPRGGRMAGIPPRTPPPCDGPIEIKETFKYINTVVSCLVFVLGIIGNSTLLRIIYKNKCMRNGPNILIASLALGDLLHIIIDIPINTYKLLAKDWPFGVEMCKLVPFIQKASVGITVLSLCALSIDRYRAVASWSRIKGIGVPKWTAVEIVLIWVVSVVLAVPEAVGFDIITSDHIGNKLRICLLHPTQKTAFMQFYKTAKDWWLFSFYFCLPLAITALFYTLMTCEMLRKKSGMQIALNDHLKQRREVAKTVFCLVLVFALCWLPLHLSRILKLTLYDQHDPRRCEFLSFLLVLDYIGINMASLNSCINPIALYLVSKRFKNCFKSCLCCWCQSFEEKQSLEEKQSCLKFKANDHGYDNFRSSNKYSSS
Method: Assay of Affinity for Receptor (2) ... Binding Activity on ETB Receptor *1
A membrane fraction prepared from the bovine brain was diluted to 0.15 mg/ml by using a buffer solution for assay, and 100 µl of the resulting suspension of the membrane fraction was poured into each assay tube to use for assay. To this suspension of the membrane fraction was added 2 µl of 5 nM ^125I labeled endothelin-1 solution. Further, 3 µl of a test peptide solution was added thereto, followed by incubation at a temperature of 25°C for 1 hour. Then, the resulting suspension was diluted with 900 µl of the buffer solution for assay cooled with ice, and thereafter separated into a supernatant and a precipitate by centrifugation at 12,000 X g for 10 minutes. Cell membranes and an endothelin receptor B (ETB) embedded therein were contained in the precipitate, and radioactive iodine-labeled endothelin bound to the receptor was also recovered in the precipitate. Accordingly, the amount of radioactive iodine-labeled endothelin bound to the endothelin receptor B (ETB) was determined by measuring the amount of radioactive iodine contained in the precipitate with a gamma-ray counter. The numerical value of ETB shown in Table 1 is the value of specific activity, taking the binding activity of the compound of Example 8 on the receptor B as 100.

NK2 receptor = target: T2, NK2 receptor (Bos taurus, UniProt P05363); test: Assay of affinity for receptor (3): binding inhibiting activity on NK2 receptor, 125I-neurokinin A, membrane fraction of bovine third stomach inner wall; settings: 125I-NKA, 25°C, 3 hours
T2 construct: The membrane fraction containing the receptor was prepared from the inner wall of the bovine third stomach; tissue Kyoto Chuo Chikusan Fukuseibutsu Oroshi Kyoukai (tissue); host or cells: inner wall of bovine third stomach, membrane fraction
T2 sequence (P05363 1-384): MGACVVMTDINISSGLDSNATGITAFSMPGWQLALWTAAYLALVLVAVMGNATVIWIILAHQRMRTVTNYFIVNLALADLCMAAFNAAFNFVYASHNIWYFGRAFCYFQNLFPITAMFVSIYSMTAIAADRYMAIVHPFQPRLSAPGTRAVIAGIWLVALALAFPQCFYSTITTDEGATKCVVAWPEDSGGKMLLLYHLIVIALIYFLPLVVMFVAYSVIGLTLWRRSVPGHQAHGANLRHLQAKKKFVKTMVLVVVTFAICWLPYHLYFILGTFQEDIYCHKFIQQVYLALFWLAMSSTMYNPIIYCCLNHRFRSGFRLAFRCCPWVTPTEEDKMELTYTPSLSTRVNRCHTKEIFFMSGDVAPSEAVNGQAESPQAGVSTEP
Method: Assay of Affinity for Receptor (3) ... Binding Inhibiting Activity on NK2 Receptor
The method of Paul L. M. Van Giersbergen et al. [Proc. Natl. Acad. Sci. U.S.A., 88, 1661 (1991) was modified for this assay. The membrane fraction containing the receptor was prepared from the inner wall of the bovine third stomach (purchased from Kyoto Chuo Chikusan Fukuseibutsu Oroshi Kyoukai).
The inner wall of the bovine third stomach stored at-80°C was cut to 1 cm X 1 cm or less, and disrupted in 3 liters/kg of 50 mM Tris-HCl buffer (pH 7.4) supplemented with 120 mM sodium chloride, 5 mM potassium chloride, 0.02% BSA and 5% sucrose, using a polytron homogenizer (Kinematika, Germany). Then, the disrupted product was centrifuged at 1,000 X g for 10 minutes. The supernatant was further centrifuged at 45,000 X g for 20 minutes. The precipitate was suspended in 200 ml of 50 mM Tris-HCl buffer (pH 7.4) supplemented with 300 mM potassium chloride, 10 mM ethylenediaminetetraacetic acid, 0.1 mM phenylmethylsulfonium fluoride and 0.02% BSA, and gently stirred under ice cooling for 60 minutes. The suspension was centrifuged at 45,000 X g for 20 minutes. The precipitate was washed with 200 ml of 50 mM Tris-HCl buffer (pH 7.4), and stored in the frozen state at -40°C as a receptor sample.
This sample was suspended in a reaction buffer solution [50 mM Tris-HCl buffer (pH 7.4), 0.02% bovine serum albumin and 4 mM manganese chloride] so as to give a protein concentration of 0.7 mg/ml, and 100 µl thereof was used for reaction. A test sample and ^125I-NKA (0.61 KBq, ^125I-neurokinin A, 81.4 TBq/mmol, Du Pont/NEN Research Products, U.S.A.) were also added, and reacted in 0.2 ml of the reaction buffer solution at 25°C for 3 hours. The reaction mixture was rapidly filtered through a glass filter (GF/B, Whatman, U.S.A.) using a cell harvester (Type 290PHD, Cambridge Technology Inc.) to terminate the reaction, and washed 3 times with 250 µl of 50 mM Tris-HCl buffer (pH 7.4) supplemented with 0.02% bovine serum albumin. The radioactivity left on the filter was measured with a gamma-ray counter. Results are shown in Table 1 as the binding inhibiting activity (IC50, unit: µM) on the NK2 receptor.

SMILES	IC50 ([1]; 25°C) [nM]	Binding Activity on ET Receptor (R. act.) ETB*1 [1]	IC50 (NK2 receptor) [nM]
CC(C)C[C@@H]1NC(=O)[C@@H](CC(C)C)NC(=O)[C@H](CC(=O)O)NC(=O)[C@H](Cc2c[nH]c3ccccc23)NC(=O)[C@@H](CC(=O)O)NC(=O)[C@@H](Cc2c[nH]c3ccccc23)NC1=O [Example 8, cyclo[-D-Asp-Trp-Asp-D-Leu-Leu-D-Trp-]] (cyclo(D[dL]L[dW][dD]W))	3000	100	6400
CC(C)C[C@@H]1NC(=O)[C@@H](CC(C)C)NC(=O)[C@H](CC(=O)O)NC(=O)[C@H](Cc2cccc3ccccc23)NC(=O)[C@@H](CC(=O)O)NC(=O)[C@@H](Cc2c[nH]c3ccccc23)NC1=O [Example 23, Cyclo[-D-Asp-Nal(1)-Asp-D-Leu-Leu-D-Trp-]] (cyclo([1Nal]D[dL]L[dW][dD]))		11	2100
CC(C)C[C@@H]1NC(=O)[C@H](Cc2c[nH]c3ccccc23)NC(=O)[C@@H](CC(=O)O)NC(=O)[C@@H](Cc2c[nH]c3ccccc23)NC(=O)[C@H](CC(C)C)NC(=O)[C@@H](CC(C)C)NC1=O [Example 35, Cyclo[-D-Asp-Trp-Leu-D-Leu-Leu-D-Trp-]] (cyclo(L[dL]L[dW][dD]W))		52	52
CC(C)C[C@@H]1NC(=O)[C@@H](CC(C)C)NC(=O)[C@H](COCc2ccccc2)NC(=O)[C@H](Cc2c[nH]c3ccccc23)NC(=O)[C@@H](CC(=O)O)NC(=O)[C@@H](Cc2c[nH]c3ccccc23)NC1=O [Example 38, Cyclo[-D-Asp-Trp-Ser(Bzl)-D-Leu-Leu-D-Trp-]] (cyclo(L[dW][dD]WS(Bn)[dL]))		66	70

Other lines, results leading:

IC50 ([1]; 25°C) [nM]	Binding Activity on ET Receptor (R. act.) ETB*1 [1]	IC50 (NK2 receptor) [nM]	SMILES
	40	1100	CC(C)C[C@@H]1NC(=O)[C@@H](CC(C)C)NC(=O)[C@@H]2CCCN2C(=O)[C@H](Cc2c[nH]c3ccccc23)NC(=O)[C@@H](CC(=O)O)NC(=O)[C@@H](Cc2c[nH]c3ccccc23)NC1=O [Example 36, Cyclo[-D-Asp-Trp-Pro-D-Leu-Leu-D-Trp-]] (cyclo(L[dW][dD]WP[dL]))
	22	280	CC(C)C[C@@H]1NC(=O)[C@@H](CC(C)C)NC(=O)[C@H](CO)NC(=O)[C@H](Cc2c[nH]c3ccccc23)NC(=O)[C@@H](CC(=O)O)NC(=O)[C@@H](Cc2c[nH]c3ccccc23)NC1=O [Example 37, Cyclo[-D-Asp-Trp-Ser-D-Leu-Leu-D-Trp-]] (cyclo(L[dW][dD]WS[dL]))
	77	7400	CC(C)C[C@@H]1NC(=O)[C@@H](CC(C)C)NC(=O)[C@H](CCC(=O)O)NC(=O)[C@H](Cc2c[nH]c3ccccc23)NC(=O)[C@@H](CC(=O)O)NC(=O)[C@@H](Cc2c[nH]c3ccccc23)NC1=O [Example 34, Cyclo[-D-Asp-Trp-Glu-D-Leu-Leu-D-Trp-]] (cyclo(E[dL]L[dW][dD]W))
